These results are taken from patent US20090163490A1, “Pyrrolopyrimidine Derivatives Used As HSP90 Inhibitors” (VERNALIS (R&D) LTD., priority 2006, published 2009).

A word on the GI50: it is the concentration at which growth is held to half of that of the control.

For test [1], the system named is BT474 cells. Briefly: Sulforhodamine B (SRB) growth inhibition assay. The class given is cell-based. As to conditions: Homo sapiens, BT-474, activity range. As to the method:
A growth inhibition assay was also employed for the evaluation of test compounds:
Assessment of Cytotoxicity by Sulforhodamine B (SRB) Assay: Calculation of 50% Inhibitory Concentration (IC50).
• 1) Determine cell number by haemocytometer. • 2) Using an 8 channel multipipettor, add 160 μl of the cell suspension (3600 cells/well or 2×10^4 cells/ml) to each well of a 96-well microtitre plate. • 3) Incubate overnight at 37° C. in a CO2 incubator.
• 4) Stock solutions of drugs are prepared, and serial dilutions of each drug are performed in medium to give final concentrations in wells. • 5) Using a multipipettor, 40 μl of drug (at 5× final concentration) is added to quadruplicate wells. • 6) Control wells are at either side of the 96 well plates, where 40 μl of medium is added. • 7) Incubate plates in CO2 incubator for […].
• 8) Tip off medium into sink and immerse plate slowly into 10% ice cold trichloroacetic acid (TCA). Leave for about 30 mins on ice. • 9) Wash plates three times in tap water by immersing the plates into baths of tap water and tipping it off. • 10) Dry in incubator. • 11) Add 100 μl of 0.4% SRB in 1% acetic acid to each well (except the last row (right hand) of the 96 well plate, this is the 0% control, ie no drug, no stain. The first row will be the 100% control with no drug, but with stain). Leave for 15 mins. • 12) Wash off unbound SRB stain with four washes of 1% acetic acid. • 13) Dry plates in incubator. • 14) Solubilised SRB using […] of 10 mM Tris base and put plates on plate shaker for 5 mins. • 15) Determine absorbance at 540 nm using a plate reader. Calculate mean absorbance for quadruplicate wells and express as a percentage of value for control, untreated wells. • 16) Plot % absorbance values versus log drug concentration and determine the GI50., ie the concentration of test compound required to inhibit growth of the cells by 50%.
The compounds tested in the above assay were assigned to one of three activity ranges, namely A=<0.5 μM; B=0.5 μM to 10 μM; C=>10 μM, and the results for six of the compounds of the invention are reported in Table 2.

The target of test [2] is T1, human full-length HSP90 (Homo sapiens, UniProt P08238).
T1 construct: E. coli expressed human full-length HSP90 protein, purified >95%; made in house; host or cells: E. coli
Nature of the test: Fluorescence polarization (FP) binding assay. As to conditions: competitive displacement of fluorescein-labelled probe from human full-length HSP90, activity range. The text has this:
Fluorescence Polarization Assay
Fluorescence polarization {also known as fluorescence anisotropy} measures the rotation of a fluorescing species in solution, where the larger molecule the more polarized the fluorescence emission. When the fluorophore is excited with polarized light, the emitted light is also polarized. The molecular size is proportional to the polarization of the fluorescence emission.
The fluoroscein-labelled probe—
binds to HSP90 {full-length human, full-length yeast or N-terminal domain HSP90} and the anisotropy {rotation of the probe:protein complex} is measured.
Test compound is added to the assay plate, left to equilibrate and the anisotropy measured again. Any change in anisotropy is due to competitive binding of compound to HSP90, thereby releasing probe.
Stored at room temperature. • 3) BSA (bovine serum albumen) 10 mg/ml (New England Biolabs # B9001S) • 4) 20 mM probe in 100% DMSO stock concentration. Stored in the dark at RT. Working concentration is 200 nM diluted in AR water and stored at 4° C.
• 1) Add 100 μl×buffer to wells 1A and 12A(=FP BLNK) • 2) Prepare assay mix—all reagents are kept on ice with a lid on the bucket as the probe is light-sensitive.
• 3) Aliquot 100 μl assay mix to all other wells • 4) Seal plate and leave in dark at room temp for 20 minutes to equilibrate
This gives 2.5 mM {50×} stock cpd−assuming cpds 20 mM. • 4) Repeat for wells A2 to A10. Control in columns 11 and 12. • 5) Transfer 5 μl from row A to row B—not column 12. Mix well. • 6) Transfer 5 μl from row B to row C. […] Add 2 μl of 100 mM standard cpd to wells B12-H12 {is positive control} • 13) The Z′ factor is calculated from zero controls and positive wells.
(In general: Polarisation of emitted light reports the rotation of a fluorescent probe.)

Where [3] appears, read: read-out: activity in the fluorescence polarization assay.
Setting [4] is: read-out: ACTIVITY* (Activity in the FP binding assay).

pIC50: −log10 of the molar value. Where two headings read alike, the source gives them in different places. Where only a bound is given, the exact number is not on record here.

T1 sequence (P08238 whole entry): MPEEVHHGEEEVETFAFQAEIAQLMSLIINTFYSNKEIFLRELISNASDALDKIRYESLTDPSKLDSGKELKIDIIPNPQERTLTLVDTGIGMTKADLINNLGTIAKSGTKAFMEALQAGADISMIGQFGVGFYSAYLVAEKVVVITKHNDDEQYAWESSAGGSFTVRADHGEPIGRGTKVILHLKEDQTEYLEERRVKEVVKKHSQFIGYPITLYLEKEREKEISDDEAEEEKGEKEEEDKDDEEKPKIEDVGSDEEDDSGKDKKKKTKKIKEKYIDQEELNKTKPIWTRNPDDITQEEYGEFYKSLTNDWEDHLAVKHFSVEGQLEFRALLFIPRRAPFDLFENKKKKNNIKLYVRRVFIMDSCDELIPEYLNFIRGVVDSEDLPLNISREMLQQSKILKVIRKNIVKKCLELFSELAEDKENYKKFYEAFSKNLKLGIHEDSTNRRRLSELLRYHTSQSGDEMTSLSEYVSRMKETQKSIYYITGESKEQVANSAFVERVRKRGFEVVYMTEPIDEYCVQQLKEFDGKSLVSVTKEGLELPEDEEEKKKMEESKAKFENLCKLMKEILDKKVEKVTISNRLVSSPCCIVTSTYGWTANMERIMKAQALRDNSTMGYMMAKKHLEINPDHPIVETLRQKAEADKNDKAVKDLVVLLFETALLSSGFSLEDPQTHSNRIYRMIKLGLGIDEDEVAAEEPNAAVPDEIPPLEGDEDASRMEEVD

On to `CCN(CC)CCSc1nc(-c2ccc(F)cc2C)c2c(C#N)c[nH]c2n1` [Example 19, 2-(2-Diethylamino-ethylsulfanyl)-4-(4-fluoro-2-methyl-phenyl)-7H-pyrrolo[2,3-d]pyrimidine-5-carbonitrile], for which, in test [1], the GI50 fell in the range of 500 to 10000 nM. In addition, the pIC50 in test [2] (setting [3]) was over 6.30.
The like results for `CCN(CC)CCOc1nc(-c2cc(OC)c(Cl)cc2Cl)c2c(C#N)c[nH]c2n1` [Example 24, 4-(2,4-Dichloro-5-methoxy-phenyl)-2-(2-diethylamino-ethoxy)-7H-pyrrolo[2,3-d]pyrimidine-5-carbonitrile] were, in that order, 500 to 10000 nM and over 6.30.
For `CCN(CC)CCOc1cc(-c2nc(SCC(=O)NC)nc3[nH]cc(C#N)c23)c(Cl)cc1Cl` [Example 28, 2-{5-Cyano-4-[2,4-dichloro-5-(2-diethylamino-ethoxy)-phenyl]-7H-pyrrolo[2,3-d]pyrimidin-2-ylsulfanyl}-N-methyl-acetamide], in test [1], the GI50 was under 500 nM. Also, in test [2] (setting [3]), the pIC50 is over 6.30.
Taken in the same sequence, the figures for `COc1cc(Cl)c(-c2nc(OCCN3CCC(F)(F)CC3)nc3[nH]cc(C#N)c23)cc1OC` [Example 31, 4-(2-Chloro-4,5-dimethoxy-phenyl)-2-[2-(4,4-difluoro-piperidin-1-yl)-ethoxy]-7H-pyrrolo[2,3-d]pyrimidine-5-carbonitrile] were under 500 nM and over 6.30.
As to `CC(C)Sc1nc(-c2cc(OCc3ccccc3)c(Cl)cc2Cl)c2c(C#N)c[nH]c2n1` [Example 51], the GI50 in test [1] lay within 500 to 10000 nM. Also, the pIC50 in test [2] (setting [4]) was 5.00 to 6.30.
The like results for `COc1cc(Cl)c(-c2nc(SC)nc3[nH]cc(C#N)c23)cc1OCCN1CC[C@@H](F)C1` [Example 72] were, in that order, under 500 nM and over 6.30.
As to `CSc1nc(C(=O)N2Cc3ccccc3C2)c2c(C#N)c[nH]c2n1` [Example 93, 4-(1,3-Dihydro-isoindole-2-carbonyl)-2-methylsulfanyl-7H-pyrrolo[2,3-d]pyrimidine-5-carbonitrile], in test [2] (setting [3]), the pIC50 was 5.00 to 6.30.
